From article PMC8722715 (Frontiers in Cell and Developmental Biology, 2021)

What was measured:
hNaV1.7 channel = molecular target: T1, hNaV1.7 channel (Homo sapiens, UniProt Q15858); assay: Automated patch-clamp block of hNaV1.7 peak Na+ current in CHO cells; format: cell-based; details: for IC50: CHO cells stably expressing hNaV1.7, SyncroPatch 384 PE whole-cell, holding -100 mV, -10 mV test pulse 50 ms every 5 s, room temperature 18-22°C, 0.3% BSA, steady state or end of 15-min application, mean, S.E.M. and n cells; for hNaV1.7 IC50 versus WT: ratio of analogue mean IC50 to HwTx-IV WT mean IC50 on hNaV1.7
T1 construct: expressed in transfected cells
T1 sequence (Q15858 whole entry): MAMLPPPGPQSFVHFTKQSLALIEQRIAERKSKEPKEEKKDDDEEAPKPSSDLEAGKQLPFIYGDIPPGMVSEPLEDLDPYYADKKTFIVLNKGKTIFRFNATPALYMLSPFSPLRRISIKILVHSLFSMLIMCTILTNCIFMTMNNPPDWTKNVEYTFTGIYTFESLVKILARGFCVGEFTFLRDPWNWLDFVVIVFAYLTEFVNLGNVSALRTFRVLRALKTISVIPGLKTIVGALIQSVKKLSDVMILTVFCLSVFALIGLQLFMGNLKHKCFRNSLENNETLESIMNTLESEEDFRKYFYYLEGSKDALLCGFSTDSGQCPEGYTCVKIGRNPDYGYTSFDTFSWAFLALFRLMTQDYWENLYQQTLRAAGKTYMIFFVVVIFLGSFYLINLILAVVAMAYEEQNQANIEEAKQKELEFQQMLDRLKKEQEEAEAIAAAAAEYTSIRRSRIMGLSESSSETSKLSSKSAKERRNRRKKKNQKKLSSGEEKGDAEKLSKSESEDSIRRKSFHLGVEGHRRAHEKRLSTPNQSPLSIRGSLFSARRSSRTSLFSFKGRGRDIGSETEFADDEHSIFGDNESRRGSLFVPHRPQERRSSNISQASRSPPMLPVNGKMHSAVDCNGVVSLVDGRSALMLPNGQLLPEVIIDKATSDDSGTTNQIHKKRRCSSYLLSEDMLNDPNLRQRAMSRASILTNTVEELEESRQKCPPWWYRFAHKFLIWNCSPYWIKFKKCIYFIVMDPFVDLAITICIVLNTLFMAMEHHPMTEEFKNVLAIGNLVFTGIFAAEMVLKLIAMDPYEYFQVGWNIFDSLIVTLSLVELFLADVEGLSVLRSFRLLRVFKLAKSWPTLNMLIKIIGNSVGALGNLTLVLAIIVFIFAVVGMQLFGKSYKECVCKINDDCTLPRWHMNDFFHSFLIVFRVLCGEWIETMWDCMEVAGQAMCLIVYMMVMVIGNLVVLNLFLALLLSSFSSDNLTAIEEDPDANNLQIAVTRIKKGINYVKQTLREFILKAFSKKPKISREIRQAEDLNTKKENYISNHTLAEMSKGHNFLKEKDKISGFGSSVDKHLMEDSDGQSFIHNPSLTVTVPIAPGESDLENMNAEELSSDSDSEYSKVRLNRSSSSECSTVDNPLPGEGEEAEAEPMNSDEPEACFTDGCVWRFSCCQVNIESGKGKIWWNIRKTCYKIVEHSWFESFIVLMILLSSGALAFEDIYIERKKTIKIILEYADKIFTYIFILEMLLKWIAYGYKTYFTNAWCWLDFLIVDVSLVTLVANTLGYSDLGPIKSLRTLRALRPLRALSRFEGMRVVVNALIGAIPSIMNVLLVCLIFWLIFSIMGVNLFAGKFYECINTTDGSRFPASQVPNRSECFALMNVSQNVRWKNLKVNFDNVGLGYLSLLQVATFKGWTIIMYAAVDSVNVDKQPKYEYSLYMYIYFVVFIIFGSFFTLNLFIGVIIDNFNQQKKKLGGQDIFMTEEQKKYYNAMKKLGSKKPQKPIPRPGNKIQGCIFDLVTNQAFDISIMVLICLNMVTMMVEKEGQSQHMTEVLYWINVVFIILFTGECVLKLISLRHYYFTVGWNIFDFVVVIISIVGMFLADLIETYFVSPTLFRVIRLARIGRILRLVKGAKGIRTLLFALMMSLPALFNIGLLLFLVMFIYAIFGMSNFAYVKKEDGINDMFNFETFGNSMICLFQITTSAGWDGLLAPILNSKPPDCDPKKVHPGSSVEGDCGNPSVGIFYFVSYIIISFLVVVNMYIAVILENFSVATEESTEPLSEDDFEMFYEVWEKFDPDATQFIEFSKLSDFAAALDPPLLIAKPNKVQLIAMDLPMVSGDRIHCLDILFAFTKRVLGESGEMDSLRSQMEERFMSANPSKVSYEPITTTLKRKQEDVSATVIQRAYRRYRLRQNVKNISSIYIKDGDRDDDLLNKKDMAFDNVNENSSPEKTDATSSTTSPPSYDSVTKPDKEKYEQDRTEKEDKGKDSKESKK
Procedure, shortened: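 Automated whole-cell patch clamp on CHO cells stably expressing hNaV1.7, held at −100 mV at 18–22°C. Peak current evoked by 50 ms steps to −10 or 0 mV every 5 s; HwTx-IV analogues applied in extracellular solution with 0.3% BSA. Percent inhibition taken at steady-state block or after 15 min application.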

hNaV1.6 channel = molecular target: T2, hNaV1.6 channel (Homo sapiens, UniProt Q9UQD0); assay: Automated patch-clamp block of hNaV1.6 peak Na+ current in HEK-293 cells; format: cell-based; details: for IC50: HEK-293 cells stably expressing hNaV1.6, SyncroPatch 384 PE whole-cell, holding -100 mV, 0 mV test pulse 50 ms every 5 s, room temperature 18-22°C, 0.3% BSA, steady state or end of 15-min application, mean, S.E.M. and n cells; for hNaV1.6 IC50 versus WT: ratio of analogue mean IC50 to HwTx-IV WT mean IC50 on hNaV1.6
T2 construct: expressed in transfected cells
T2 sequence (Q9UQD0 whole entry): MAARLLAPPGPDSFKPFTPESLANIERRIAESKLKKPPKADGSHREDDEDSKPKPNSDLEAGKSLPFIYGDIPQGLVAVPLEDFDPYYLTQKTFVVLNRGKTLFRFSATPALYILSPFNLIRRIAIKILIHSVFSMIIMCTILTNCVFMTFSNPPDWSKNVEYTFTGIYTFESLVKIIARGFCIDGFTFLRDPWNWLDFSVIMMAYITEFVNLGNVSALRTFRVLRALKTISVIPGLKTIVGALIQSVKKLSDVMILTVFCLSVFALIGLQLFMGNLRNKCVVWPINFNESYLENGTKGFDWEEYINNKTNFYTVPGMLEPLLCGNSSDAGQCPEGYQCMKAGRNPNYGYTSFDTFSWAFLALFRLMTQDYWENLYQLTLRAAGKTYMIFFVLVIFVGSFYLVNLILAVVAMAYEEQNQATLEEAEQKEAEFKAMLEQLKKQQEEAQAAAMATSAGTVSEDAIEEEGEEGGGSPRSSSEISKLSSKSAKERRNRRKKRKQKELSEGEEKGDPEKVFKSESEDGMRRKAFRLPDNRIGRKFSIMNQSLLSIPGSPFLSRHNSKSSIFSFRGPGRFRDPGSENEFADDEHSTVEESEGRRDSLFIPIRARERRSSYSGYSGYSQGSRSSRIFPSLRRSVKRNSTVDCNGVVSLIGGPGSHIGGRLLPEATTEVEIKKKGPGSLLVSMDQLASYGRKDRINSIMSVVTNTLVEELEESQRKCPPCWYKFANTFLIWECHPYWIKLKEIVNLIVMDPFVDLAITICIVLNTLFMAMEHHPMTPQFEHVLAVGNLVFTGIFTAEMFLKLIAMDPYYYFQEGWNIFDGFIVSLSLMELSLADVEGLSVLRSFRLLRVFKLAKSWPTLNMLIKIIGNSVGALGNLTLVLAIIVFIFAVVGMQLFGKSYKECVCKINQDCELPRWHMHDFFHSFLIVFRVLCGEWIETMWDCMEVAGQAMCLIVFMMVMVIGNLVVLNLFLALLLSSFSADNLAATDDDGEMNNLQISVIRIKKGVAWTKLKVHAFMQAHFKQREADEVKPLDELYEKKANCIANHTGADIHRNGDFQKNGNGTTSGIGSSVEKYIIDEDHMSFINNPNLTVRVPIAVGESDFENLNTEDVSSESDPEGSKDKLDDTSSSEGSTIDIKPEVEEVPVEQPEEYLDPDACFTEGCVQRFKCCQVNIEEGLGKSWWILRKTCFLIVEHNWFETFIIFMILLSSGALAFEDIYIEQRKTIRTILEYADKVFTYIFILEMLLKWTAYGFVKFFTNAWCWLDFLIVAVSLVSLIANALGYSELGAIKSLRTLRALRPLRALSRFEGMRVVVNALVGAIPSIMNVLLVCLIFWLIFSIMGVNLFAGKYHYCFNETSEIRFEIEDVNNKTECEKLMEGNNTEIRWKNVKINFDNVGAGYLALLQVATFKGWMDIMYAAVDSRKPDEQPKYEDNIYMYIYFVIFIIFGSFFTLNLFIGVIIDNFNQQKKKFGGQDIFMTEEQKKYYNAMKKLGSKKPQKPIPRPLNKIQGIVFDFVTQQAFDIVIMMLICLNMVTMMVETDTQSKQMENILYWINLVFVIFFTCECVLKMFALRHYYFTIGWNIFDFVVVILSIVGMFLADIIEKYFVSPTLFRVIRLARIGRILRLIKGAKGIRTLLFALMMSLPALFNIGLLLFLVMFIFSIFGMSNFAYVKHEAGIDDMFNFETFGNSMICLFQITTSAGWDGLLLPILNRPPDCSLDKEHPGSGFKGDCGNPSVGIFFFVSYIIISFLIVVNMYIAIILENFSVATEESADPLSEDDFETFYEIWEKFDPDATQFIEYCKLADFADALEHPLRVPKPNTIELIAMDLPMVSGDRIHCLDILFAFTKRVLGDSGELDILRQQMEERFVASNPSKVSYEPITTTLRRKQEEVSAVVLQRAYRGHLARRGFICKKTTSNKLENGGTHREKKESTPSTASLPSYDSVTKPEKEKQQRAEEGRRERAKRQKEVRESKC
Procedure, shortened: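 Whole-cell automated patch clamp at −100 mV holding, room temperature (18–22°C), CsF-based internal, 0.3% BSA in external solution; 50 ms steps to −10 or 0 mV every 5 s. Percent peak-current inhibition taken at steady-state block or after 15 min application, used for dose-response curves.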

| Structure (SMILES) | IC50 (hNaV1.7 channel) [nM] | hNaV1.7/hNaV1.6 selectivity ratio (hNaV1.7 channel; inverse ratio of the mean IC50 values on hNaV1.7 (CHO) and hNaV1.6 (HEK-293) of Table 1) | hNaV1.7 IC50 versus WT (hNaV1.7 channel) | IC50 (hNaV1.6 channel) [nM] | hNaV1.6 IC50 versus WT (hNaV1.6 channel) |
| --- | --- | --- | --- | --- | --- |
| CC[C@H](C)[C@H](NC(=O)[C@H](CCC(N)=O)NC(=O)[C@H](Cc1c[nH]c2ccccc12)NC(=O)[C@H](CCCCN)NC(=O)[C@@H]1CSSC[C@@H]2NC(=O)[C@H](CCC(N)=O)NC(=O)[C@H](CC(=O)O)NC(=O)[C@H](CC(N)=O)NC(=O)[C@H](CO)NC(=O)[C@@H]3CCCN3C(=O)[C@H](CC(N)=O)NC(=O)[C@@H]3CSSC[C@H](NC(=O)[C@H](C(C)C)NC(=O)[C@H](CC(C)C)NC(=O)[C@H](CCCCN)NC(=O)[C@H](CO)NC(=O)[C@H](CO)NC(=O)[C@H](CCCCN)NC(=O)[C@H](CSSC[C@H](NC(=O)[C@@H](N)CCC(=O)O)C(=O)N[C@@H](CC(C)C)C(=O)N[C@@H](CCCCN)C(=O)N[C@@H]([C@@H](C)CC)C(=O)N[C@@H](Cc4ccccc4)C(=O)N[C@@H](CCCCN)C(=O)N[C@@H](C)C(=O)N3)NC2=O)C(=O)N[C@@H](CO)C(=O)N[C@@H](C)C(=O)N[C@@H](CCCCN)C(=O)N[C@@H]([C@@H](C)O)C(=O)N[C@@H](CCCNC(=N)N)C(=O)N[C@@H](Cc2c[nH]c3ccccc23)C(=O)N1)C(N)=O [HwTx-IV E^4K/R ^26A/Y^33W] | 0.9 | above 46 | 0.09 | 86.4 | 0.38 |
| CC[C@H](C)[C@H](NC(=O)[C@H](CCC(N)=O)NC(=O)[C@H](Cc1ccc(O)cc1)NC(=O)[C@H](CC(N)=O)NC(=O)[C@@H]1CSSC[C@@H]2NC(=O)[C@H](CCC(N)=O)NC(=O)[C@H](CC(=O)O)NC(=O)[C@H](CC(N)=O)NC(=O)[C@H](CO)NC(=O)[C@@H]3CCCN3C(=O)[C@H](CC(N)=O)NC(=O)[C@@H]3CSSC[C@H](NC(=O)[C@H](C(C)C)NC(=O)[C@H](CC(C)C)NC(=O)[C@H](CCCCN)NC(=O)[C@H](CO)NC(=O)[C@H](CO)NC(=O)[C@H](CCCCN)NC(=O)[C@H](CSSC[C@H](NC(=O)[C@@H](N)CCC(=O)O)C(=O)N[C@@H](CC(C)C)C(=O)N[C@@H](CCCNC(=N)N)C(=O)N[C@@H]([C@@H](C)CC)C(=O)N[C@@H](Cc4ccccc4)C(=O)N[C@@H](CCCCN)C(=O)N[C@@H](C)C(=O)N3)NC2=O)C(=O)N[C@@H](CO)C(=O)N[C@@H](CCCNC(=N)N)C(=O)N[C@@H](CCCCN)C(=O)N[C@@H]([C@@H](C)O)C(=O)N[C@@H](CCCNC(=N)N)C(=O)N[C@@H](Cc2c[nH]c3ccccc23)C(=O)N1)C(N)=O [HwTx-IV E^4R/K^32N] | > 1000 | – | >101 | > 333 | >1.5 |
| CC[C@H](C)[C@H](NC(=O)[C@H](CCC(N)=O)NC(=O)[C@H](Cc1ccc(O)cc1)NC(=O)[C@H](CCCCN)NC(=O)[C@@H]1CSSC[C@@H]2NC(=O)[C@H](CCC(N)=O)NC(=O)[C@H](CC(=O)O)NC(=O)[C@H](CC(N)=O)NC(=O)[C@H](CO)NC(=O)[C@@H]3CCCN3C(=O)[C@H](CC(N)=O)NC(=O)[C@@H]3CSSC[C@H](NC(=O)[C@H](C(C)C)NC(=O)[C@H](CC(C)C)NC(=O)[C@H](CCCCN)NC(=O)[C@H](CO)NC(=O)[C@H](CO)NC(=O)[C@H](C)NC(=O)[C@H](CSSC[C@H](NC(=O)CN)C(=O)N[C@@H](CC(C)C)C(=O)NCC(=O)N[C@@H]([C@@H](C)CC)C(=O)N[C@@H](Cc4ccccc4)C(=O)N[C@@H](CCCCN)C(=O)N[C@@H](C)C(=O)N3)NC2=O)C(=O)N[C@@H](CO)C(=O)N[C@@H](CCCNC(=N)N)C(=O)N[C@@H](CCCCN)C(=O)N[C@@H]([C@@H](C)O)C(=O)N[C@@H](CCCNC(=N)N)C(=O)N[C@@H](Cc2c[nH]c3ccccc23)C(=O)N1)C(N)=O [HwTx-IV E^1G/E^4G/K^18A] | 0.8 | – | 0.08 | 4.9 | 0.02 |
| CC[C@H](C)[C@H](NC(=O)[C@H](CCC(N)=O)NC(=O)[C@H](Cc1ccc(O)cc1)NC(=O)[C@H](CCCCN)NC(=O)[C@@H]1CSSC[C@@H]2NC(=O)[C@H](CCC(N)=O)NC(=O)[C@H](CC(=O)O)NC(=O)[C@H](CC(N)=O)NC(=O)[C@H](CO)NC(=O)[C@@H]3CCCN3C(=O)[C@H](CC(N)=O)NC(=O)[C@@H]3CSSC[C@H](NC(=O)[C@H](C(C)C)NC(=O)[C@H](CC(C)C)NC(=O)[C@H](CCCCN)NC(=O)[C@H](CO)NC(=O)[C@H](CO)NC(=O)[C@H](CCCCN)NC(=O)[C@H](CSSC[C@H](NC(=O)[C@@H](N)CCC(=O)O)C(=O)N[C@@H](CC(C)C)C(=O)N[C@@H](CCC(=O)O)C(=O)N[C@@H]([C@@H](C)CC)C(=O)N[C@@H](Cc4ccccc4)C(=O)N[C@@H](CCCCN)C(=O)N[C@@H](C)C(=O)N3)NC2=O)C(=O)N[C@@H](CO)C(=O)N[C@@H](C)C(=O)N[C@@H](CCCCN)C(=O)N[C@@H]([C@@H](C)O)C(=O)N[C@@H](CCCNC(=N)N)C(=O)N[C@@H](Cc2c[nH]c3ccccc23)C(=O)N1)C(N)=O [HwTx-IV R ^26A] | 112 | – | 11.28 | 614 | 2.71 |
